The values below come from PubChem BioAssay AID2060511 (Molecular Pharmacology Branch, DTP, NCI, 2025).

Molecules are shown by their SMILES. Where “and” joins values, the source holds several entries; their conditions need not be identical. Equal values may be shown once.

This assay deals with 422866-222-R5-J1-PDC spheroids with HUVEC/MSC, viability. As to the kind of experiment: Anticancer human tumor 422866-222-R5-J1-PDC patient-derived pancreatic adenocarcinoma cell line growth inhibition [GQUAD]. Conditions: for viability, T/C: stronger effect = lower value. The text has this:
DNA G-quadruplex Stabilizer Agents in Combinations in Complex Spheroids
A high-throughput screen of multi-cell type tumor spheroids was designed to identify active combinations of DNA G-quadruplex stabilizer agents and targeted small molecules. Complex spheroids include a stromal component modeled by human endothelial cells (HUVEC) and fibroblasts modeled by human mesenchymal stem cells (MSCs). The concentration ranges selected for each drug and investigational agent were based upon clinically achievable concentrations if the clinical Cmax of the agent was known.
Compounds. The drugs and investigational agents: pidnarulex (CX-5461; NSC782164), APTO-253 (NSC789042), BRACO-19 (NSC847499), peposertib (NSC802822), ceralasertib (NSC780249), elimusertib (NSC800525), camonsertib (NSC841442), AZD-1390 (NSC803789), olaparib (NSC753686), talazoparib (NSC767125), ART-558 (NSC835418), sotorasib (NSC818433), MRTX-1133 (NSC836407), SN-38 (NSC673596), topotecan (NSC609699), etoposide (NSC141540), doxorubicin (NSC123127), gemcitabine (NSC613327), 5-fluorouracil (NSC19893), paclitaxel (NSC125973), vemurafenib (NSC761431), panobinostat (NSC761190), R-306465 (JNJ-16241199; NSC773264), adavosertib (NSC754352), TP-3654 (NSC805149), carboplatin (NSC241240), KSQ-4279 (NSC840948), and staurosporine (NSC755774) were obtained from the National Cancer Institute (NCI) Developmental Therapeutics Program Chemical Repository (34). The FDA-approved anticancer drug set is available from the NCI Developmental Therapeutics Program. […] The stock solutions were prepared in dimethyl sulfoxide (DMSO, Sigma-Aldrich, St. Louis, MO, cat. D2650) at 800-fold the tested concentration and stored at -70 degrees C prior to their use. All drugs and investigational agents were tested over a range starting from a high concentration at or near the clinical Cmax and decreasing in half-log increments. If the clinical Cmax for an agent had not been determined, the highest concentration tested was 10 microM.
2.3 Cell Culture. All cells were maintained in an incubator at 37 degrees C and 5% CO2 with 95% humidity. The PDC lines were cultured according to standard operating procedures established by the NCI PDMR. All PDCs were thawed and cultured in Matrigel-coated flasks prepared with a working solution of 1X Ham's F-12 nutrient mix, without supplementation (Invitrogen, cat. 11765054), 100 U/mL penicillin-streptomycin (Invitrogen, cat. 15140122), and 2.5% Matrigel (Corning Inc., cat. 354248) for the first three passages. The 857933-349-R-J2-PDC line was cultured in 6C/Colon 1B media, which includes advanced DMEM/F-12 (Thermo Fisher Scientific, cat. 12634028), 10 mM HEPES (Thermo Fisher Scientific, cat. 15630080), 1X GlutaMAX supplement (Thermo Fisher Scientific, cat. 35050061), 0.1 mg/mL primocin (InvivoGen, cat. ant-pm-2), 10% defined fetal bovine serum, heat inactivated (HyClone Laboratories Inc., cat. SH30070.03HI), 50% L-WRN conditioned media (ATCC, cat. CRL-3276), 1.25 mM N-Acetyl-L-cysteine (Sigma-Aldrich, cat. A9165), 10 mM nicotinamide (Sigma-Aldrich, cat. N0636), 1X B-27 supplement (Thermo Fisher Scientific, cat. 17504044), 1X N-2 supplement (Thermo Fisher Scientific, cat. 17502048), 10 microM Y-27632 dihydrochloride (Tocris Bioscience, cat. 1254), and 50 ng/mL human EGF recombinant protein (Thermo Fisher Scientific, cat. PHG0311). The 485176-168-R4-J1-PDC line was cultured in Panc media, which includes all 6C/Colon 1B media components plus 100 ng/mL human FGF-10 (Thermo Fisher Scientific, cat. 100-26), 500 nM SB-431542 (Selleckchem, cat. S1067), and gastrin (Tocris, cat. 3006).
[…]

The IC50 is the concentration that inhibits the measured activity by half. The viability, T/C is the result in the treated group divided by that in the control group, in per cent.
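Note: spheroids exposed to compounds for seven days before reading.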
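Throughout, for viability, T/C: percent viability relative to DMSO vehicle control taken as 100%.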

Regarding `COc1cccc2c1C(=O)c1c(O)c3c(c(O)c1C2=O)CC(O)(C(=O)CO)CC3OC1CC(N)C(O)C(C)O1` (stereo not given) + Cc1[nH]c2ccc(F)cc2c1-c1nc2c3cccnc3c3ncccc3c2[nH]1, the IC50 by setting is: (curve of first compound, second compound 0.0316 µM) 474 nM; (curve of first compound, second compound 0.1 µM) 782 nM; (curve of first compound, second compound 0.316 µM) 639 nM; (curve of first compound, second compound 1 µM) 463 nM; (curve of first compound, second compound 3.16 µM) 349 nM; (curve of first compound, second compound 10 µM) 529 nM. Further, the viability, T/C is 108% (second compound 0.0316 µM, first compound 0.0316 µM); 70.2% (second compound 0.0316 µM, first compound 0.1 µM); 63.6% (second compound 0.0316 µM, first compound 0.316 µM); 37.3% (second compound 0.0316 µM, first compound 1 µM); 30% (second compound 0.0316 µM, first compound 3.16 µM); 34.7% (second compound 0.0316 µM, first compound 10 µM). Further, the viability, T/C was 113% (second compound 0.1 µM, first compound 0.0316 µM); 65.6% (second compound 0.1 µM, first compound 0.1 µM); 69.2% (second compound 0.1 µM, first compound 0.316 µM); 53.4% (second compound 0.1 µM, first compound 1 µM); 34% (second compound 0.1 µM, first compound 3.16 µM); 35% (second compound 0.1 µM, first compound 10 µM). Besides, the viability, T/C reads like this: (second compound 0.316 µM, first compound 0.0316 µM) 92%; (second compound 0.316 µM, first compound 0.1 µM) 67.9%; (second compound 0.316 µM, first compound 0.316 µM) 54%; (second compound 0.316 µM, first compound 1 µM) 55.5%; (second compound 0.316 µM, first compound 3.16 µM) 31.7%; (second compound 0.316 µM, first compound 10 µM) 35.9%. The viability, T/C reads like this: (second compound 1 µM, first compound 0.0316 µM) 93.9%; (second compound 1 µM, first compound 0.1 µM) 65.7%; (second compound 1 µM, first compound 0.316 µM) 54.5%; (second compound 1 µM, first compound 1 µM) 46.3%; (second compound 1 µM, first compound 3.16 µM) 37.2%; (second compound 1 µM, first compound 10 µM) 36.1%. The viability, T/C (second compound 3.16 µM, first compound 0.0316 µM) was 73.4%; the viability, T/C (second compound 3.16 µM, first compound 0.1 µM) is 65.6%; the viability, T/C (second compound 3.16 µM, first compound 0.316 µM) was 48.1%; the viability, T/C (second compound 3.16 µM, first compound 1 µM) was 45.8%; the viability, T/C (second compound 3.16 µM, first compound 3.16 µM) was 31.6%; the viability, T/C (second compound 3.16 µM, first compound 10 µM) was 37.8%. The viability, T/C by setting is: (second compound 10 µM, first compound 0.0316 µM) 77.7%; (second compound 10 µM, first compound 0.1 µM) 64.9%; (second compound 10 µM, first compound 0.316 µM) 52.5%; (second compound 10 µM, first compound 1 µM) 48%; (second compound 10 µM, first compound 3.16 µM) 34.3%; (second compound 10 µM, first compound 10 µM) 30.4%.

For the molecule `CN(C)c1ccc(Nc2c3ccc(NC(=O)CCN4CCCC4)cc3nc3cc(NC(=O)CCN4CCCC4)ccc23)cc1`, the viability, T/C (compound 0.0316 µM) was 96.4% [middle of 12 runs]; the viability, T/C (compound 0.1 µM) was 96.8% [middle of 12 runs]; the viability, T/C (compound 1 µM) is 90.4% [middle of 12 runs]; the viability, T/C (compound 3.16 µM) was 96% [middle of 12 runs]. Moreover, the IC50 (compound alone, run of 04/22/2024) was greater than 10000 nM.

As to `Cc1cnc(CNC(=O)c2c(=O)c3ccc(N4CCCN(C)CC4)nc3n3c2sc2ccccc23)cn1`, the viability, T/C reads like this: (compound 0.1 µM) 96.7% [middle of 12 runs]; (compound 0.316 µM) 90.4% [middle of 12 runs]; (compound 1 µM) 85.3% [middle of 12 runs]; (compound 3.16 µM) 87.8% [middle of 12 runs]; (compound 10 µM) 81% [middle of 11 runs]. In addition, the IC50 (compound alone, run of 04/16/2024) is greater than 10000 nM.

Regarding `COc1ncnc(C2CC2)c1-c1ncc2cnn(Cc3ccc(-c4nc(C(F)(F)F)cn4C(C)C)cc3)c2n1`, the viability, T/C runs as follows: (compound 0.0316 µM) 91.6% and 95% and 118%; (compound 0.1 µM) 94% and 105% and 97%; (compound 0.316 µM) 92.3% and 121% and 97.5%; (compound 1 µM) 79.7% and 102% and 98.1%; (compound 3.16 µM) 97% and 60.6% and 99.1%; (compound 10 µM) 117% and 43.5% and 105%. Moreover, the IC50 (curve of compound) is > 10000 nM and 6450 nM.
